# Target: T1, human Werner helicase (WRN-BV08, Uniprot Q14191, amino acids 517-1235 with L1074F point mutation) (Homo sapiens, UniProt Q14191, L1074F)
# T1 construct: Uniprot Q14191, amino acids 517-1235 with L1074F point mutation; TEV-cleavable 8×His (C, cleaved yes); made in house; host or cells: Sf9 insect cells (baculovirus)
# Experiment: WRN (BV08) ADP-Glo Assay
# Assay type: biochemical
# Conditions: 0.15 nM WRN, 5 μM ATP, 0.1 nM DNA duplex, 15 min preincubation, 60 min at 25° C., pH 7.5, 1% DMSO; read-out: ADP-Glo_hWRN_IC50
# Method in brief: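 ADP produced by WRN helicase fragment 517-1235 (L1074F, baculovirus/Sf9, untagged) read by ADP-Glo luminescence after 60 min at 25 °C with 5 μM ATP and 0.1 nM duplex DNA, following 15 min compound preincubation. Final enzyme 0.15 nM in Bicine pH 7.5 buffer, 1% DMSO; 20 μM NSC-617145 defined full inhibition.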
# T1 sequence (Q14191 with tags, fused parts or gaps L1074F limits assumed): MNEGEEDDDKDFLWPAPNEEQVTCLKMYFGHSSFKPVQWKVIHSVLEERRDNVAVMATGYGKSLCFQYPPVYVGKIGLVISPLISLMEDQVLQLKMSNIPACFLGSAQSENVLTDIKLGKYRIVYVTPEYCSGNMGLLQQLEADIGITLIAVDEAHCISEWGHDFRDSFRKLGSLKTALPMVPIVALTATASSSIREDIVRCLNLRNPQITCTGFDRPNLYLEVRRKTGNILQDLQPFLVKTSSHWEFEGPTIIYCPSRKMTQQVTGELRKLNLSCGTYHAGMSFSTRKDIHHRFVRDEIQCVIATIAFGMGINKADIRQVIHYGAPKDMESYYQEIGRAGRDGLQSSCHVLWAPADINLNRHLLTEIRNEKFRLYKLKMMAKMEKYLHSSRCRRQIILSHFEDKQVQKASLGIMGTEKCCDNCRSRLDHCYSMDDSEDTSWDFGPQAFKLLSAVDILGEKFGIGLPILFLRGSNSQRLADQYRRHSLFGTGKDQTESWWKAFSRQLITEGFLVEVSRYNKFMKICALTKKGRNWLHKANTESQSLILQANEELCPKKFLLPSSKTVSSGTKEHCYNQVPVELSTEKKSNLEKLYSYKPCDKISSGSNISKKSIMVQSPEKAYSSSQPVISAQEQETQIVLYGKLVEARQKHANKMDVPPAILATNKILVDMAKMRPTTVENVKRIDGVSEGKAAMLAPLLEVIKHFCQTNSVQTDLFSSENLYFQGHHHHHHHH
row,Structure (SMILES),IC50
1,"O=C(Cn1cc(Br)cn1)N(Cc1ccncc1)C1C=CS(=O)(=O)C1 (centres unmarked) [I-408, 2-(4-bromo-1H-pyrazol-1-yl)-N-(1,1-dioxo-2,3-dihydro-1lambda6-thiophen-3-yl)-N-[(pyridin-4-yl)methyl]acetamide]",> 50 µM
2,"CC(=O)Nc1ccc(CN(C(=O)Cc2ccc(-n3cccc3)cc2)C2C=CS(=O)(=O)C2)cc1 (centres unmarked) [I-302, N-(1,1-dioxo-2,3-dihydro-1lambda6-thiophen-3-yl)-N-[(4-acetamidophenyl)methyl]-2-[4-(1H-pyrrol-1-yl)phenyl]acetamide]",10 to 50 µM
3,"O=C(Cc1ccc(-n2cccc2)cc1)N(Cc1cccc(Br)c1)C1C=CS(=O)(=O)C1 (centres unmarked) [I-157, N-[(3-bromophenyl)methyl]-N-(1,1-dioxo-2,3-dihydro-1lambda6-thiophen-3-yl)-2-[4-(1H-pyrrol-1-yl)phenyl]acetamide]",0.5 to 5 µM
4,"CN(C)S(=O)(=O)c1ccc(CC(=O)N(Cc2ccncc2)C2C=CS(=O)(=O)C2)cc1 (centres unmarked) [I-388, 2-[4-(dimethylsulfamoyl)phenyl]-N-(1,1-dioxo-2,3-dihydro-1lambda6-thiophen-3-yl)-N-[(pyridin-4-yl)methyl]acetamide]",> 50 µM
5,"CC(C)c1csc(CN(C(=O)Cc2ccc(S(F)(F)(F)(F)F)cc2)C2C=CS(=O)(=O)C2)n1 (centres unmarked) [I-659, N-(1,1-dioxo-2,3-dihydro-1lambda6-thiophen-3-yl)-2-[4-(pentafluoro-lambda6-sulfanyl)phenyl]-N-{[4-(propan-2-yl)-1,3-thiazol-2-yl]methyl}acetamide]",< 0.5 µM
6,"Cc1cccn1-c1ccc(CC(=O)N(Cc2ccncn2)C2C=CS(=O)(=O)C2)c(F)c1 (centres unmarked) [I-181, N-(1,1-dioxo-2,3-dihydro-1lambda6-thiophen-3-yl)-2-[2-fluoro-4-(2-methyl-1H-pyrrol-1-yl)phenyl]-N-[(pyrimidin-4-yl)methyl]acetamide]",0.5 to 5 µM
7,"COc1cc(CN(C(=O)C(c2ccc(-c3ccc(F)c(F)c3)cc2F)n2cc(C(C)(C)O)cn2)[C@@H]2C=CS(=O)(=O)C2)ccn1 (stereo partly drawn) [I-758, N-[(3R)-1,1-dioxo-2,3-dihydro-1lambda6-thiophen-3-yl]-2-[4-(2-hydroxypropan-2-yl)-1H-pyrazol-1-yl]-N-[(2-methoxypyridin-4-yl)methyl]-2-{3,3′,4′-trifluoro-[1,1′-biphenyl]-4-yl}acetamide]",0.5 to 5 µM
8,"COc1cc(CN(C(=O)C(OC2CCN(S(C)(=O)=O)CC2)c2ccc(-c3ccc(F)c(F)c3)cc2F)[C@@H]2C=CS(=O)(=O)C2)ccn1 (stereo partly drawn) [I-687, N-[(3R)-1,1-dioxo-2,3-dihydro-1lambda6-thiophen-3-yl]-2-[(1-methanesulfonylpiperidin-4-yl)oxy]-N-[(2-methoxypyridin-4-yl)methyl]-2-{3,3′,4′-trifluoro-[1,1′-biphenyl]-4-yl}acetamide]",5 to 10 µM
9,"COc1cc(CN(C(=O)C2CCc3[nH]c4cc(Cl)ccc4c3C2)[C@@H]2C=CS(=O)(=O)C2)ccn1 (stereo partly drawn) [I-786, 7-chloro-N-[(3R)-1,1-dioxo-2,3-dihydro-1lambda6-thiophen-3-yl]-N-[(2-methoxypyridin-4-yl)methyl]-2,3,4,9-tetrahydro-1H-carbazole-3-carboxamide]",0.5 to 5 µM
10,"CN(C)C(=O)OC(C(=O)N(Cc1ccnc(C(C)(C)O)c1)[C@@H]1C=CS(=O)(=O)C1)c1ccc(-c2ccc(F)c(F)c2)cc1F (single isomer, unassigned) [I-636]",10 to 50 µM
11,"O=C(Cc1ccc(-n2cccc2)cc1)N(Cc1ccc2ncccc2c1)C1C=CS(=O)(=O)C1 (centres unmarked) [I-222, N-(1,1-dioxo-2,3-dihydro-1lambda6-thiophen-3-yl)-2-[4-(1H-pyrrol-1-yl)phenyl]-N-[(quinolin-6-yl)methyl]acetamide]",5 to 10 µM
12,"COc1cc(CN(C(=O)Cc2ccc(-n3cccc3C)cn2)C2C=CS(=O)(=O)C2)ccn1 (centres unmarked) [I-250, N-(1,1-dioxo-2,3-dihydro-1lambda6-thiophen-3-yl)-N-[(2-methoxypyridin-4-yl)methyl]-2-[5-(2-methyl-1H-pyrrol-1-yl)pyridin-2-yl]acetamide]",5 to 10 µM
13,"O=C(Cc1ccc(C2CC2)cc1)N(Cc1ccncc1)C1C=CS(=O)(=O)C1 (centres unmarked) [I-287, 2-(4-cyclopropylphenyl)-N-(1,1-dioxo-2,3-dihydro-1lambda6-thiophen-3-yl)-N-[(pyridin-4-yl)methyl]acetamide]",5 to 10 µM
14,"COc1cc(CN(C(=O)Cc2ccc(-c3cscn3)cc2F)C2C=CS(=O)(=O)C2)ccn1 (centres unmarked) [I-363, N-(1,1-dioxo-2,3-dihydro-1lambda6-thiophen-3-yl)-2-[2-fluoro-4-(1,3-thiazol-4-yl)phenyl]-N-[(2-methoxypyridin-4-yl)methyl]acetamide]",10 to 50 µM
15,"CC(C(=O)N(Cc1ccncc1)C1C=CS(=O)(=O)C1)n1cc2ccccc2n1 (centres unmarked) [I-620, N-(1,1-dioxo-2,3-dihydro-1lambda6-thiophen-3-yl)-2-(2H-indazol-2-yl)-N-[(pyridin-4-yl)methyl]propanamide]",> 50 µM
16,"O=C(Cc1ccc(-n2cccc2)cc1)N(Cc1cc(F)ccc1F)C1C=CS(=O)(=O)C1 (centres unmarked) [I-278, N-[(2,5-difluorophenyl)methyl]-N-(1,1-dioxo-2,3-dihydro-1lambda6-thiophen-3-yl)-2-[4-(1H-pyrrol-1-yl)phenyl]acetamide]",10 to 50 µM
17,"O=C(Cc1ccc(-n2cccc2)cc1)N(CC12CCC(CC1)CC2)C1C=CS(=O)(=O)C1 (centres unmarked) [I-545, N-({bicyclo[2.2.2]octan-1-yl}methyl)-N-(1,1-dioxo-2,3-dihydro-1lambda6-thiophen-3-yl)-2-[4-(1H-pyrrol-1-yl)phenyl]acetamide]",> 50 µM

# Further lines, results first:
row,IC50,Structure (SMILES)
1,0.5 to 5 µM,"O=C(Cc1ccc(-n2cccc2)cc1Cl)N(Cc1ccncc1)C1C=CS(=O)(=O)C1 (centres unmarked) [I-208, 2-[2-chloro-4-(1H-pyrrol-1-yl)phenyl]-N-(1,1-dioxo-2,3-dihydro-1lambda6-thiophen-3-yl)-N-[(pyridin-4-yl)methyl]acetamide]"
2,0.5 to 5 µM,"Cc1cccn1-c1ccc(CC(=O)N(Cc2ccnc3c2CCO3)C2C=CS(=O)(=O)C2)c(F)c1 (centres unmarked) [I-179, N-(1,1-dioxo-2,3-dihydro-1lambda6-thiophen-3-yl)-2-[2-fluoro-4-(2-methyl-1H-pyrrol-1-yl)phenyl]-N-({2H,3H-furo[2,3-b]pyridin-4-yl}methyl)acetamide]"
3,10 to 50 µM,"O=C(Cc1ccc2ccccc2c1)N(Cc1ccncc1)C1C=CS(=O)(=O)C1 (centres unmarked) [I-315, N-(1,1-dioxo-2,3-dihydro-1lambda6-thiophen-3-yl)-2-(naphthalen-2-yl)-N-[(pyridin-4-yl)methyl]acetamide]"
4,> 50 µM,"COC(C(=O)N(Cc1ccncc1)C1C=CS(=O)(=O)C1)c1ccc(-c2ccc(F)cc2)cc1 (single isomer, unassigned) [I-575, (2R*)-N-[(3R**)-1,1-dioxo-2,3-dihydro-1lambda6-thiophen-3-yl]-2-{4′-fluoro-[1,1′-biphenyl]-4-yl}-2-methoxy-N-[(pyridin-4-yl)methyl]acetamide]"
5,< 0.5 µM,"O=C(Cn1cc(-c2ccc(F)c(F)c2)cn1)N(Cc1nc(C2CC2)cs1)C1C=CS(=O)(=O)C1 (single isomer, unassigned) [I-5, N-((4-cyclopropylthiazol-2-yl)methyl)-2-(4-(3,4-difluorophenyl)-1H-pyrazol-1-yl)-N-(1,1-dioxido-2,3-dihydrothiophen-3-yl)acetamide]"
6,10 to 50 µM,"COC(C(=O)N(Cc1ccncc1)C1C=CS(=O)(=O)C1)c1ccc(-c2ccc(C)cc2)cc1 (centres unmarked) [I-356, N-(1,1-dioxo-2,3-dihydro-1lambda6-thiophen-3-yl)-2-methoxy-2-{4′-methyl-[1,1′-biphenyl]-4-yl}-N-[(pyridin-4-yl)methyl]acetamide]"
7,0.5 to 5 µM,"CC(C(=O)N(Cc1ccnc(C(C)(C)O)c1)C1C=CS(=O)(=O)C1)n1cc(-c2ccc(C(F)(F)F)cc2)cn1 (single isomer, unassigned) [I-775, (2R*)-N-[(3R**)-1,1-dioxo-2,3-dihydro-1lambda6-thiophen-3-yl]-N-{[2-(2-hydroxypropan-2-yl)pyridin-4-yl]methyl}-2-{4-[4-(trifluoromethyl)phenyl]-1H-pyrazol-1-yl}propanamide]"
8,10 to 50 µM,"O=C(Cn1nc(-c2ccc(F)cc2)oc1=O)N(Cc1ccncc1)C1C=CS(=O)(=O)C1 (centres unmarked) [I-349, N-(1,1-dioxo-2,3-dihydro-1lambda6-thiophen-3-yl)-2-[5-(4-fluorophenyl)-2-oxo-2,3-dihydro-1,3,4-oxadiazol-3-yl]-N-[(pyridin-4-yl)methyl]acetamide]"
9,0.5 to 5 µM,"C#CCCCC(=O)N1CCN(C(=O)c2ccc(CN(C(=O)Cc3ccc(-n4cccc4C)cc3F)C3C=CS(=O)(=O)C3)cc2)CC1 (centres unmarked) [I-182, N-(1,1-dioxo-2,3-dihydro-1lambda6-thiophen-3-yl)-2-[2-fluoro-4-(2-methyl-1H-pyrrol-1-yl)phenyl]-N-({4-[4-(hex-5-ynoyl)piperazine-1-carbonyl]phenyl}methyl)acetamide]"
10,> 50 µM,"O=C(C1CCc2cc(-n3cccc3)ccc21)N(Cc1ccncc1)C1C=CS(=O)(=O)C1 (centres unmarked) [I-477, N-(1,1-dioxo-2,3-dihydro-1lambda6-thiophen-3-yl)-N-[(pyridin-4-yl)methyl]-5-(1H-pyrrol-1-yl)-2,3-dihydro-1H-indene-1-carboxamide]"
11,0.5 to 5 µM,"Cc1cccn1-c1ccc(CC(=O)N(Cc2ccnc(CC(C)(C)O)c2)C2C=CS(=O)(=O)C2)c(F)c1 (centres unmarked) [I-139, N-(1,1-dioxo-2,3-dihydro-1lambda6-thiophen-3-yl)-2-[2-fluoro-4-(2-methyl-1H-pyrrol-1-yl)phenyl]-N-{[2-(2-hydroxy-2-methylpropyl)pyridin-4-yl]methyl}acetamide]"
12,0.5 to 5 µM,"CC(C)(O)c1cc(CN(C(=O)C2Cc3cc(C(F)(F)F)ccc3O2)C2C=CS(=O)(=O)C2)ccn1 (centres unmarked) [I-131, N-(1,1-dioxo-2,3-dihydro-1lambda6-thiophen-3-yl)-N-{[2-(2-hydroxypropan-2-yl)pyridin-4-yl]methyl}-5-(trifluoromethyl)-2,3-dihydro-1-benzofuran-2-carboxamide]"

# Reference: patent US20260297070A1, “CYCLIC [COMPOUND LEFT OUT] WRN INHIBITORS” (Nimbus Wadjet, Inc., priority 2023, published 2026)
